# Test results: article PMC10716264 (Frontiers in Medicine, 2023)
# Like-named read-outs stand apart in the source and are kept apart here.
# How the values were obtained:
# SARS-CoV-2 3CLpro = SARS-CoV-2 3CLpro (Severe acute respiratory syndrome coronavirus 2, UniProt P0DTD1); assay: biochemical
# [1] = tested on: SARS-CoV-2 (2019-nCoV-WIV04); assay: microbe, parasite or virus in culture; assay type: cell-based; conditions: read-out: EC50 against SARS-CoV-2 virus
# [2] = tested on: influenza A/California/07/09 (H1N1) strain; assay: microbe, parasite or virus in culture; assay type: cell-based; conditions: read-out: EC50 (effective 50% concentration), MDCK cells
# [3] = design: method as in earlier work; conditions: co-administration with ritonavir; cited from earlier work
# [4] = biological target: SARS-CoV-2 RdRp complex (nsp12-nsp7-nsp8) (Severe acute respiratory syndrome coronavirus 2, UniProt P0DTD1); assay type: biochemical
# COVID-19 = tested on: COVID-19; design: method as in PMID 32568613; conditions: unvaccinated symptomatic adults, Nirmatrelvir-based therapy; cited from earlier work
# [5] = Severe acute respiratory syndrome coronavirus 2, Vero C1008, 24 h
compound,measurement,setting,value
"2,4-bis-O-galloyl-1,3,6-tri-O-galloyl-β-D-glucose [R-7]",IC50,SARS-CoV-2 3CLpro,9.84 µM
same,EC50,[1],17.5 µM
NC(=O)c1nc(F)c[nH]c1=O [Favipiravir],EC50,[2],24 µM
Cc1cccc(C)c1OCC(=O)N[C@@H](Cc1ccccc1)[C@@H](O)C[C@H](Cc1ccccc1)NC(=O)[C@H](C(C)C)N1CCCNC1=O [Lopinavir],increase of area under the plasma concentration-time curve,[3],more than 100 times
O=c1c(O)c(-c2cc(O)c(O)c(O)c2)oc2cc(O)cc(O)c12 [Myricetin],formation of the RdRp-RNA complex,[4]; 250 μM,completely blocked
same,inhibition of primer elongation,"[4]; gel assay, compared with Rutan",showed inhibitory activity in higher concentrations
CC(C)(C)[C@H](NC(=O)C(F)(F)F)C(=O)N1C[C@H]2[C@@H]([C@H]1C(=O)N[C@H](C#N)C[C@@H]1CCNC1=O)C2(C)C [Nirmatrelvir],reduction of the risk of severe complications following COVID-19 infection,COVID-19,89%
"O=C(OC[C@H]1O[C@@H](OC(=O)c2cc(O)c(O)c(O)c2)[C@H](OC(=O)c2cc(O)c(O)c(O)c2)[C@@H](OC(=O)c2cc(O)c(O)c(O)c2)[C@@H]1OC(=O)c1cc(O)c(O)c(O)c1)c1cc(O)c(O)c(O)c1 [R-5, 1,2,3,4,6-penta-O-galloyl-β-D-glucose]",EC50,[1]; [5],7.49 µM
"O=C(OC[C@H]1O[C@@H](OC(=O)c2cc(O)c(O)c(O)c2)[C@H](OC(=O)c2cc(O)c(O)c(O)c2)[C@@H](OC(=O)c2cc(O)c(O)c(OC(=O)c3cc(O)c(O)c(O)c3)c2)[C@@H]1OC(=O)c1cc(O)c(O)c(O)c1)c1cc(O)c(O)c(O)c1 [R-6, 3-bis-O-galloyl-1,2,4,6-tetra-O-galloyl-β-D-glucose]",IC50,SARS-CoV-2 3CLpro,9.92 µM
same,EC50,"[1]; Severe acute respiratory syndrome coronavirus 2, Vero C1008, Vero E6 cells, MOI 0.01, 24 h post-infection, viral copies by qRT-PCR",5.95 µM
"O=C(OC[C@H]1O[C@@H](OC(=O)c2cc(O)c(O)c(O)c2)[C@H](OC(=O)c2cc(O)c(O)c(OC(=O)c3cc(O)c(O)c(O)c3)c2)[C@@H](OC(=O)c2cc(O)c(O)c(OC(=O)c3cc(O)c(O)c(O)c3)c2)[C@@H]1OC(=O)c1cc(O)c(O)c(OC(=O)c2cc(O)c(O)c(O)c2)c1)c1cc(O)c(O)c(O)c1 [R-8, 2,3,4-bis-O-galloyl-1,6-di-O-galloyl-β-D-glucose]",IC50,SARS-CoV-2 3CLpro; Rutan and components (Figure 4),1.34 µM
CCC(CC)COC(=O)[C@H](C)N[P@](=O)(OC[C@H]1O[C@@](C#N)(c2ccc3c(N)ncnn23)[C@H](O)[C@@H]1O)Oc1ccccc1 [Remdesivir],EC50,[1]; [5],2 µM
